Patent US10292999B2, “Treatment of enteric stress from heat and infection in humans and animals by supplementation with zinc and butyric acid” (Kemin Industries, Inc., priority 2015, dated 2019)

What was measured:
IPEC-J2 cells [1] = assay: Trans-epithelial resistance (TER) of IPEC-J2 cells under heat stress; assay type: cell-based, pig; settings: 300 μM, heat stress 41.5° C.; for trans-epithelial resistance versus un-treated heat stress cells: FIG. 2
Experimental: FIG. 2 is a chart of the effect of 300 μM concentration of different test compounds on the transepithelial resistance (TER) values of IPEC-J2 cells under heat stress conditions.
When animals undergo heat stress, the increased temperature leads to damage of the epithelial layer as well as withdrawal of tight junction proteins to the cytoplasm of the epithelial cells, thus compromising the tight junctions. The compromised tight junctions allow for toxins and other inflammatory substances to enter the systemic circulation. […] As reported in FIG. 2, cells were treated with the test compounds and incubated at 41.5° C. (Con-TN) Control-Thermoneutral conditions—37° C. (CON—HS)—Control-Heat Stress conditions—41.5° C. (Zn Sulf) 300 μM Zinc Sulfate under Heat Stress Conditions—41.5° C. (ZBA) 300 μM ZBA under Heat Stress Conditions—41.5° C. (CaBA) 300 μM Calcium and Butyric Acid Salt under Heat Stress Conditions—41.5° C.

IPEC-J2 cells [2] = settings: 1 mM, normal conditions, vs control, FIG. 1

Compound: O=S(=O)([O-])[O-].[Zn+2] [Zinc Sulfate]
- trans-epithelial resistance versus un-treated heat stress cells (IPEC-J2 cells [1]): do not improve the trans-epithelial resistance
- trans-epithelial resistance (TER), 0 h (IPEC-J2 cells [1]): 1.00
- trans-epithelial resistance (TER), 12 h (IPEC-J2 cells [1]): 1.67
- trans-epithelial resistance (TER), 24 h (IPEC-J2 cells [1]): 1.89
- trans-epithelial resistance (TER), 36 h (IPEC-J2 cells [1]): 2.19
- trans-epithelial resistance (TER), 48 h (IPEC-J2 cells [1]): 2.31

Compound: CCCC(=O)[O-].CCCC(=O)[O-].[Zn+2] [ZBA, zinc salt of butyric acid in a molar ratio of 1:2]
- trans-epithelial resistance (IPEC-J2 cells [2]): increased trans-epithelial resistance
- trans-epithelial resistance versus un-treated heat stress cells (IPEC-J2 cells [1]): improves the trans-epithelial resistance to the level of cells grown that are grown at thermoneutral conditions
- trans-epithelial resistance (TER), 0 h (IPEC-J2 cells [1]): 1.00
- trans-epithelial resistance (TER), 12 h (IPEC-J2 cells [1]): 2.04
- trans-epithelial resistance (TER), 24 h (IPEC-J2 cells [1]): 2.24
- trans-epithelial resistance (TER), 36 h (IPEC-J2 cells [1]): 2.60
- trans-epithelial resistance (TER), 48 h (IPEC-J2 cells [1]): 2.76

Compound: Calcium and Butyric Acid Salt [Calcium Butyric Acid Salt]
- trans-epithelial resistance versus un-treated heat stress cells (IPEC-J2 cells [1]): do not improve the trans-epithelial resistance
- trans-epithelial resistance (TER), 0 h (IPEC-J2 cells [1]): 1.00
- trans-epithelial resistance (TER), 12 h (IPEC-J2 cells [1]): 1.58
- trans-epithelial resistance (TER), 24 h (IPEC-J2 cells [1]): 1.74
- trans-epithelial resistance (TER), 36 h (IPEC-J2 cells [1]): 1.96
- trans-epithelial resistance (TER), 48 h (IPEC-J2 cells [1]): 2.10
